14 compounds from US20220402948A1, “EGFR INHIBITOR, COMPOSITION AND PREPARATION METHOD THEREFOR” (BETTA PHARMACEUTICALS CO., LTD., priority 2019, published 2022) can be followed below.

One experiment has as its system A431. Description: A431 cell proliferation assay (CellTiter Glo, 72 hours). The following applies: Homo sapiens, A-431, 72 h, cell proliferation, A431, 72 hours, Table 2; read-out: A431 IC50. The experiment is classed as cell-based. In short, it runs like this: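 A431 cells (2000/well) exposed 72 h to compound at 1000 nM down to 0.2 nM in 3-fold steps, 0.1% DMSO (0.5% for some series). Viability by CellTiter-Glo luminescence; IC50 by four-parameter nonlinear regression.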
On the technique in general: ATP-based viability assays read luminescence as a measure of living cells.

The next experiment concerns the target EGFR WT (Homo sapiens, UniProt P00533). The experiment is described as follows: EGFR WT kinase test (mobility variation analysis, Caliper EZ Reader). The experiment is classed as biochemical. Conditions: kinase enzymatic activity, Table 1. The method, boiled down:
(§1)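 Kinase pre-incubated with compound 10 minutes at room temperature, then ATP plus peptide substrate added; substrate conversion read by mobility shift after stop solution. Percent inhibition normalized to no-compound and no-enzyme controls; IC50 from variable-slope log(inhibitor) fit.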

Experiment [1] concerns the target Ba/F3 cells with EGFR Δ19del/T790M/C797S mutation gene stably overexpressed (Homo sapiens, UniProt P00533, T790M/C797S, cells depend on it, form not given). Description: Ba/F3-Δ19del/T790M/C797S cell proliferation assay (CellTiter Glo, 72 hours). The following applies: Table 2, read-out: EGFR Δ19del/T790M/C797S IC50. The experiment is classed as cell-based. The method, boiled down:
(§2)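 Ba/F3 cells stably overexpressing wild-type EGFR or EGFR Δ19del/T790M/C797S were seeded at 2000 cells/well and incubated 72 h with compound. Viability was read by CellTiter-Glo luminescence, and IC50 came from a four-parameter logistic fit of signal against log concentration.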

The target in a further experiment is IGF1R (Homo sapiens, UniProt P08069). Description: IGF1R kinase test (mobility variation analysis, Caliper EZ Reader). The experiment is classed as biochemical. The following applies: kinase enzymatic activity, Table 1; read-out: EGFR IGF1R IC50. The method, boiled down:
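Kinase preincubated 10 min at room temperature with compound (10-point 3-fold series, top 3000 nM), then ATP and substrate added and reacted at room temperature. Substrate conversion read by mobility-shift (Caliper EZ Reader); % inhibition vs no-enzyme and no-compound controls fitted to variable-slope curve for IC50.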

The next experiment addresses EGFRΔ19del/T790M/C797S (Homo sapiens, UniProt P00533, T790M/C797S, form not given). The experiment is described as follows: EGFR Δ19del/T790M/C797S kinase test (mobility variation analysis, Caliper EZ Reader). The experiment is classed as biochemical. The following applies: kinase enzymatic activity, Table 1. In short, it runs like this:
as §1

For experiment [2], the target named is Ba/F3-EGFR wild-type cell line (Homo sapiens, UniProt P00533). The experiment is described as follows: Ba/F3-EGFR wild-type cell proliferation assay (CellTiter Glo, 72 hours). The experiment is classed as cell-based. Conditions: Table 2, read-out: EGFR WT IC50. The method, boiled down: as §2

As usually defined, the IC50 is the concentration that inhibits the measured activity by half.

Sequence of Ba/F3-EGFR wild-type cell line (P00533 whole entry, change not shown): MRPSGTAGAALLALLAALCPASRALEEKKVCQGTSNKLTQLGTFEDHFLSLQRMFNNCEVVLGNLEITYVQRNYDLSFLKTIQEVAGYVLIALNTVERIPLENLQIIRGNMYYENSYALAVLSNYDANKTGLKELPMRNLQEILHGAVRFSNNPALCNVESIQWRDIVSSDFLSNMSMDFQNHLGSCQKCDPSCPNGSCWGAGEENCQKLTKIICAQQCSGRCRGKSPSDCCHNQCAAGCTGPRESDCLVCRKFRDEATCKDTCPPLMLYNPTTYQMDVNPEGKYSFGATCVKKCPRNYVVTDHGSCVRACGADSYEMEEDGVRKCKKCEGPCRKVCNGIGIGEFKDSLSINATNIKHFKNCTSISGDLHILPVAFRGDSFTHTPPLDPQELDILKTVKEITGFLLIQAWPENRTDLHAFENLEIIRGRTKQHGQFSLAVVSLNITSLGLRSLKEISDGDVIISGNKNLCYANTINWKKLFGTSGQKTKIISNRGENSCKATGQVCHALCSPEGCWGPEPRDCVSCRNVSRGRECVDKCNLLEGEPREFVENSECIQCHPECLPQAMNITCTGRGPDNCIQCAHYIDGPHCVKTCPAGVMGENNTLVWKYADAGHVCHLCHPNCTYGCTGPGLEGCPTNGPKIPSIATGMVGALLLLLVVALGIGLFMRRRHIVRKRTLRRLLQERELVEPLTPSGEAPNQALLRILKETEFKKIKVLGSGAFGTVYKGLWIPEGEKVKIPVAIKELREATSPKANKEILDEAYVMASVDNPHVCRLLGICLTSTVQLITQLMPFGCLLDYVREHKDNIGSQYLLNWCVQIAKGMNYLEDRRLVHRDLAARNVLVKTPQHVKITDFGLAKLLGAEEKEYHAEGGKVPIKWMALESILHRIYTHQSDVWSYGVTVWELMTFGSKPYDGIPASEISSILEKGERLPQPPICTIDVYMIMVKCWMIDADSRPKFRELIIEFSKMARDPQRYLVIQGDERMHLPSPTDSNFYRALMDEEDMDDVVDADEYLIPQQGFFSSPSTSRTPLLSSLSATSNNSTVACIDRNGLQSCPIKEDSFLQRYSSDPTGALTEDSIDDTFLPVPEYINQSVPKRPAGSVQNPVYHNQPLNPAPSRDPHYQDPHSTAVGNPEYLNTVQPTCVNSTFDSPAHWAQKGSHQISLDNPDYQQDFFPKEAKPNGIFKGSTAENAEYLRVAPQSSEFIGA
Sequence of EGFR WT (P00533 25-1210): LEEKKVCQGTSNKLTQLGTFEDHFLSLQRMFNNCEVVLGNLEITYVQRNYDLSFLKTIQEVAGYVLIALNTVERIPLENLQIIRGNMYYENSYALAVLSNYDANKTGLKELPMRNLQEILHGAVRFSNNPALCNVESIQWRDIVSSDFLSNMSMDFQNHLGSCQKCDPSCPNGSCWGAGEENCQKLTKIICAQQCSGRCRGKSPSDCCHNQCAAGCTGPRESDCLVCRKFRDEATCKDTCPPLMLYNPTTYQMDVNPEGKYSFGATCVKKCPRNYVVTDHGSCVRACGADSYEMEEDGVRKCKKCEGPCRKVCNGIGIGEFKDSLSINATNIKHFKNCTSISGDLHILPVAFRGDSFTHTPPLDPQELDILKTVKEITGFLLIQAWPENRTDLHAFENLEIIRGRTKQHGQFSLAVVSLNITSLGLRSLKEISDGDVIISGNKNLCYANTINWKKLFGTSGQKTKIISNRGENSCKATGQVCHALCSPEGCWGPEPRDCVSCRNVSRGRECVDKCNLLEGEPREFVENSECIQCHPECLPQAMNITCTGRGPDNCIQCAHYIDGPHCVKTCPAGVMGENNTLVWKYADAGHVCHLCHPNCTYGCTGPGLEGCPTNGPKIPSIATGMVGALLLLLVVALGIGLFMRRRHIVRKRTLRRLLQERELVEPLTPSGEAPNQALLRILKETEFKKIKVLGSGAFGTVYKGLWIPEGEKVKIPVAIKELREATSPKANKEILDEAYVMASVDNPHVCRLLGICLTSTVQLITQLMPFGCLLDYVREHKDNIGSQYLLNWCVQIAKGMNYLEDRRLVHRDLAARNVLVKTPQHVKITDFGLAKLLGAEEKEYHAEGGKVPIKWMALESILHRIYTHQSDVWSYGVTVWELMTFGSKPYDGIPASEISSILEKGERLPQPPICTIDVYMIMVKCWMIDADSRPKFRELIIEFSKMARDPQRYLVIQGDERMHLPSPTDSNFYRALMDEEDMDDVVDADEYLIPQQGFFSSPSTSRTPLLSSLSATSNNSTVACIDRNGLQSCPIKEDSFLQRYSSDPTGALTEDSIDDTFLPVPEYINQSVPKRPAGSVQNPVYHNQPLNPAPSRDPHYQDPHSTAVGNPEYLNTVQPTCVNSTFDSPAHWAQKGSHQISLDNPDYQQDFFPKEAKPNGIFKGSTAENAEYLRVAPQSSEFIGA
Sequence of IGF1R (P08069 31-1367, species assumed): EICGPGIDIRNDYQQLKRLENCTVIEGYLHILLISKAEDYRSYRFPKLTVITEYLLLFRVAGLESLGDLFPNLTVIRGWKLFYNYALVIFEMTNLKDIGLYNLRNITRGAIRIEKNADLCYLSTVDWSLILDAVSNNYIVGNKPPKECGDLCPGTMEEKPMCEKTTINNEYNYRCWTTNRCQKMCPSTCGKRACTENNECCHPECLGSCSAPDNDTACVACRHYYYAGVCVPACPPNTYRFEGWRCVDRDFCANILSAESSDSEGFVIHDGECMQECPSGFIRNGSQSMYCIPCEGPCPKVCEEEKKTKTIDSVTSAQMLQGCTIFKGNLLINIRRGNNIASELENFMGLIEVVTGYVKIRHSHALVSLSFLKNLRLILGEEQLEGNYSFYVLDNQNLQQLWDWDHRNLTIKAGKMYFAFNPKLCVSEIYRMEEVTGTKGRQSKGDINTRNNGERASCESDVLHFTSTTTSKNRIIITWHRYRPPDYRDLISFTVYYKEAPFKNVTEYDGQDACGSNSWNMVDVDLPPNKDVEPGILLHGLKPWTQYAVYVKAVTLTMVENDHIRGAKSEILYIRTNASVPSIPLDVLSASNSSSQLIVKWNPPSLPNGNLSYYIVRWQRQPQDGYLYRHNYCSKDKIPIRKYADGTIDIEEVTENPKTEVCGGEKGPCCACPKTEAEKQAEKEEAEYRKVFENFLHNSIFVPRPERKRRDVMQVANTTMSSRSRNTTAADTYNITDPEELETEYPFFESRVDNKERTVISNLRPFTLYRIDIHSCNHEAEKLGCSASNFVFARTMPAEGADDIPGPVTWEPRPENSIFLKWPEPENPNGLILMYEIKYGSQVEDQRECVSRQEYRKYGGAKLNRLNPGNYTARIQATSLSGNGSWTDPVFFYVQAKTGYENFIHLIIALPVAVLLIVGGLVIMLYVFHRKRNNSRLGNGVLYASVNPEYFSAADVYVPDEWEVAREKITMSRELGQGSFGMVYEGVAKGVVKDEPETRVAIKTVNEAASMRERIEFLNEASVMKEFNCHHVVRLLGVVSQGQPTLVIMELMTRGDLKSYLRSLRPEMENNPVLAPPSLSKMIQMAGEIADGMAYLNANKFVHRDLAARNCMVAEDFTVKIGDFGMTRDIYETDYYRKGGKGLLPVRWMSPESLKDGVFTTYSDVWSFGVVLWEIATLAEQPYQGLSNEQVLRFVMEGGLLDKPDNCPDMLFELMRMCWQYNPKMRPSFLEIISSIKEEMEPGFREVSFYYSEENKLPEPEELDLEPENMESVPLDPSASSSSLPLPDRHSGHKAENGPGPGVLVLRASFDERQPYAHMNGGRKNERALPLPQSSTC
Sequence of Ba/F3 cells with EGFR Δ19del/T790M/C797S mutation gene stably overexpressed (P00533 with tags, fused parts or gaps DEL746-750/T790M/C797S, form open): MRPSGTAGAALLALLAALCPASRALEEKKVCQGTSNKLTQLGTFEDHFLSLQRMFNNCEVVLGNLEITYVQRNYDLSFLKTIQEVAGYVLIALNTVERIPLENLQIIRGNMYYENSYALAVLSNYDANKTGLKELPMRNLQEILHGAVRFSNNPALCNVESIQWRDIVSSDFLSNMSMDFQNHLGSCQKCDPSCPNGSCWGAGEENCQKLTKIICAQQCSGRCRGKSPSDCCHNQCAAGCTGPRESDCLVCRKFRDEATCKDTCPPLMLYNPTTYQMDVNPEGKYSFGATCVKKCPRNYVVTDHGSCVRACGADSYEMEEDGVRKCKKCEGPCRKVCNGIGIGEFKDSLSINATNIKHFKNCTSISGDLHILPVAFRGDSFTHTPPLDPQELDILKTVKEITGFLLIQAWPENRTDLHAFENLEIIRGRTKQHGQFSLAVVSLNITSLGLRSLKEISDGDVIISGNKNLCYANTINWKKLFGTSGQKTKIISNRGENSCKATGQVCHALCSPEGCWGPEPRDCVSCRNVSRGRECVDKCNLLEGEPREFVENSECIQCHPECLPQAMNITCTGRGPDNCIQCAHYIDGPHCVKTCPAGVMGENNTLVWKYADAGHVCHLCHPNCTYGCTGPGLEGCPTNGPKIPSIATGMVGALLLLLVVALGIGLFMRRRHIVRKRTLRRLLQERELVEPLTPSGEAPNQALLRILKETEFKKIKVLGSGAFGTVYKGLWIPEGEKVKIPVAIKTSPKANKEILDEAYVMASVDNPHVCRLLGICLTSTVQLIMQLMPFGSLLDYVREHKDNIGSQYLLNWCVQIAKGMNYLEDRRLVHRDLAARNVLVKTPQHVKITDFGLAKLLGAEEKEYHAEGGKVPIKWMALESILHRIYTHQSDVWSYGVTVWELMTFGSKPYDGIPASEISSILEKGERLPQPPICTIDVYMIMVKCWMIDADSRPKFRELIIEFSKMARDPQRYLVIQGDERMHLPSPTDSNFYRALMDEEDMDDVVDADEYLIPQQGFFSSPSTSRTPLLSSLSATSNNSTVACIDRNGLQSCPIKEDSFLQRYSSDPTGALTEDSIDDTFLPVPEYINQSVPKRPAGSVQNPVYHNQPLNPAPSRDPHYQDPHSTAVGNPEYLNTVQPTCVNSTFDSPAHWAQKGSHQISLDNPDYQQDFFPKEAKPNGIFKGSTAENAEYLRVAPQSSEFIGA

As for `COc1cnn(-c2ccc(Nc3nc(Nc4cc(OC)c(N5CCOCC5)cc4C)ncc3Br)c(P(C)(C)=O)c2)c1` [Compound K-023, (2-((5-Bromo-2-((5-methoxy-2-methyl-4-morpholinophenyl)amino)pyrimidin-4-yl)amino)-5-(4-methoxy-1H-pyrazol-1-yl)phenyl)dimethylphosphine oxide], the half-inhibitory concentration (IC50) in the experiment with A431 was 1280 nM; at EGFR WT it was 41.5 nM; on IGF1R, 136 nM; against EGFRΔ19del/T790M/C797S, 0.2 nM. Further, the GI50 in experiment [1] stood at 5 nM; in experiment [2] it was 89.5 nM.
Consider `COc1cc(Nc2ncc(Br)c(Nc3ccc(-c4nccs4)cc3P(C)(C)=O)n2)c(C)cc1N1CCOCC1` [Compound K-024, (2-((5-Bromo-2-((5-methoxy-2-methyl-4-morpholinophenyl)amino)pyrimidin-4-yl)amino)-5-(thiazol-2-yl)phenyl)dimethylphosphine oxide], for which the IC50 with A431 was 601 nM; against EGFR WT, 35 nM; at IGF1R, 71.1 nM; at EGFRΔ19del/T790M/C797S, 0.3 nM. The GI50 in experiment [1] worked out at 15.6 nM; in experiment [2], 172 nM.
With `COc1cc(Nc2ncc(Br)c(Nc3ccc(-c4cnn(C)n4)c(F)c3P(C)(C)=O)n2)c(C)cc1N1CCOCC1` [Compound K-025, (6-((5-Bromo-2-((5-methoxy-2-methyl-4-morpholinophenyl)amino)pyrimidin-4-yl)amino)-2-fluoro-3-(2-methyl-2H-1,2,3-triazol-4-yl)phenyl)dimethylphosphine oxide], the IC50 is greater than 10000 nM with A431, 39 nM against EGFR WT, 69 nM on IGF1R and 0.23 nM at EGFRΔ19del/T790M/C797S. The GI50 in experiment [1] was 12.6 nM; in experiment [2], 220 nM.
`COc1cnn(-c2ccc(Nc3nc(Nc4cc(OC)c(N5CCOCC5)cc4C4CC4)ncc3Br)c(P(C)(C)=O)c2)c1` [Compound K-026, (2-((5-Bromo-2-((2-cyclopropyl-5-methoxy-4-morpholinophenyl)amino)pyrimidin-4-yl)amino)-5-(4-methoxy-1H-pyrazol-1-yl)phenyl)dimethylphosphine oxide]: the IC50 is greater than 10000 nM in the experiment with A431, 188 nM against EGFR WT, 413 nM at IGF1R and 0.6 nM on EGFRΔ19del/T790M/C797S. In addition, the GI50 came out at 17.3 nM in experiment [1] and 946 nM in experiment [2].
Consider `COc1cc(N2CCOCC2)c(C#N)cc1Nc1ncc(Br)c(Nc2ccc(-c3nccs3)cc2P(C)(C)=O)n1` [Compound K-027, 5-((5-Bromo-4-((2-(dimethylphosphineoxide)-4-(thiazol-2-yl)phenyl)amino)pyrimidin-2-yl)amino)-4-methoxy-2-morpholinobenzonitrile], for which the half-maximal inhibitory concentration (IC50) in the experiment on A431 is 4050 nM; against EGFR WT, 50.2 nM; on IGF1R, 364 nM; on EGFRΔ19del/T790M/C797S it was 0.6 nM. Also, the GI50 stood at 12.9 nM in experiment [1] and 453 nM in experiment [2].
With `COc1cnn(-c2ccc(Nc3nc(Nc4cc(OC)c(N5CCN(C)CC5)cc4C)ncc3Br)c(P(C)(C)=O)c2)c1` [Compound K-028, (2-((5-Bromo-2-((5-methoxy-2-methyl-4-(4-methylpiperazin-1-yl)phenyl)amino)pyrimidin-4-yl)amino)-5-(4-methoxy-1H-pyrazol-1-yl)phenyl)-dimethylphosphine oxide], the IC50 amounted to 1240 nM with A431, 26 nM at EGFR WT, 39.1 nM on IGF1R and 0.1 nM against EGFRΔ19del/T790M/C797S. For the same compound, the GI50 in experiment [1] was found to be 5.7 nM; in experiment [2], 226 nM.
Consider `COc1cc(N2CCN(C)CC2)c(C)cc1Nc1ncc(Br)c(Nc2ccc(-c3nccs3)cc2P(C)(C)=O)n1` [Compound K-029, (2-((5-Bromo-2-((2-methoxy-5-methyl-4-(4-methylpiperazin-1-yl)phenyl)amino)pyrimidin-4-yl)amino)-5-(thiazol-2-yl)phenyl)dimethylphosphine oxide], for which the IC50 in the experiment on A431 was found to be 3180 nM; against EGFR WT, 60.6 nM; at IGF1R it was 91 nM; at EGFRΔ19del/T790M/C797S, 0.3 nM. The results for the GI50 in experiment [1] and in experiment [2] were 15.2 nM and 52.1 nM, respectively.
Take `COc1cc(Nc2ncc(Br)c(Nc3ccc(-c4cnn(C)c4)cc3P(C)(C)=O)n2)c(C)cc1N1CCOCC1` [Compound K-030, (2-((5-Bromo-2-((5-methoxy-2-methyl-4-morpholinophenyl)amino)pyrimidin-4-yl)amino)-5-(1-methyl-1H-pyrazol-4-yl)phenyl)dimethylphosphine oxide]: the IC50 in the experiment on A431 stood at 615 nM; against EGFR WT, 7.8 nM; at IGF1R it was 21.5 nM; against EGFRΔ19del/T790M/C797S, 0.2 nM. The GI50 is 3.6 nM in experiment [1] and 132 nM in experiment [2].
Turning to `COc1cc(Nc2ncc(Br)c(Nc3ccc(-c4ccc(C)cn4)cc3P(C)(C)=O)n2)c(C)cc1N1CCOCC1` [Compound K-032, (2-((5-Bromo-2-((5-methoxy-2-methyl-4-morpholinophenyl)amino)pyrimidin-4-yl)amino)-5-(5-methylpyridin-2-yl)phenyl)dimethylphosphine oxide], the half-inhibitory concentration (IC50) stood at 1340 nM in the experiment with A431, 55.2 nM on EGFR WT, 106 nM at IGF1R and 0.3 nM against EGFRΔ19del/T790M/C797S. Further, the GI50 in experiment [1] turned out to be 4.8 nM; in experiment [2], 128 nM.
Take `COc1cc(Nc2ncc(Br)c(Nc3ccc(-c4cnc(C5CC5)cn4)cc3P(C)(C)=O)n2)c(C)cc1N1CCOCC1` [Compound K-033, (2-((5-Bromo-2-((5-methoxy-2-methyl-4-morpholinophenyl)amino)pyrimidin-4-yl)amino)-5-(5-cylopropylpyrazin-2-yl)phenyl)dimethylphosphine oxide]: the IC50 came to 1590 nM with A431, 55.6 nM at EGFR WT, 121 nM on IGF1R and 0.3 nM against EGFRΔ19del/T790M/C797S. Further, the GI50 came out at 6.4 nM in experiment [1] and 63.5 nM in experiment [2].
As to `CCOc1cc(Nc2ncc(Br)c(Nc3ccc(-c4cnn(C)n4)c(F)c3P(C)(C)=O)n2)c(C)cc1N1CCOCC1` [Compound K-034, (6-((5-Bromo-2-((5-ethoxy-2-methyl-4-morpholinophenyl)amino)pyrimidin-4-yl)amino)-2-fluoro-3-(2-methyl-2H-1,2,3-triazol-4-yl)phenyl)dimethylphosphine oxide], the half-inhibitory concentration (IC50) came out at 1230 nM in the experiment on A431, 64.4 nM against EGFR WT, 37.1 nM on IGF1R and 0.4 nM against EGFRΔ19del/T790M/C797S. Further, the GI50 in experiment [1] turned out to be 20.9 nM; in experiment [2] it was 219 nM.
On to `CCOc1cc(Nc2ncc(Br)c(Nc3ccc(-c4ccc(C)cn4)cc3P(C)(C)=O)n2)c(C)cc1N1CCOCC1` [Compound K-035, (2-((5-Bromo-2-((5-ethoxy-2-methyl-4-morpholinophenyl)amino)pyrimidin-4-yl)amino)-5-(5-methylpyridin-2-yl)phenyl)dimethylphosphine oxide], for which the IC50 in the experiment with A431 was 1680 nM; on EGFR WT it was 42.8 nM; at IGF1R, 48.7 nM; on EGFRΔ19del/T790M/C797S, 0.3 nM. In addition, the values for the GI50 in experiment [1] and in experiment [2] were 18.6 nM and 146 nM, respectively.
`COc1cc(Nc2ncc(Br)c(Nc3ccc(-c4cnn(C)n4)c(F)c3P(C)(C)=O)n2)c(C)cc1N1CC(C)OC(C)C1` (stereo not drawn) [Compound K-037, (6-((5-Bromo-2-((4-(2,6-dimethylmorpholine)-5-methoxy-2-methylphenyl)amino)pyrimidin-4-yl)amino)-2-fluoro-3-(2-methyl-2H-1,2,3-triazol-4-yl)phenyl)dimethylphosphine oxide]: the concentration for half-maximal inhibition (IC50) was 7530 nM in the experiment with A431, 125 nM against EGFR WT, 251 nM on IGF1R and 0.8 nM at EGFRΔ19del/T790M/C797S. Further, the GI50 worked out at 10.9 nM in experiment [1] and 374 nM in experiment [2].
Consider `COc1cnn(-c2ccc(Nc3nc(Nc4cc(OC)c(N5CCC(N(C)C)CC5)cc4C)ncc3Br)c(P(C)(C)=O)c2)c1` [Compound K-038, (2-((5-Bromo-2-((4-(4-(dimethylamino)piperidin-1-yl)-5-methoxy-2-methylphenyl)amino)pyrimidine-4-yl)amino)-5-(4-methoxy-1H-pyrazol-1-yl)phenyl)dimethylphosphine oxide], for which the IC50 with A431 came out at 1040 nM; against EGFR WT it was 19.2 nM; at IGF1R, 56.1 nM; against EGFRΔ19del/T790M/C797S, 0.2 nM. In addition, the values for the GI50 in experiment [1] and in experiment [2] were 15.4 nM and 114 nM, respectively.
